Laboratory results published in ChEMBL document CHEMBL1147120, “Chemical constituents of malagasy Liverworts. 6. A myltaylane caffeate with nitric oxide inhibitory activity from Bazzania nitida” (J Nat Prod, 2007).

Tested on: RAW
Assay: Inhibition of LPS-induced NO production in RAW 264.7 cells
Format: functional, cell-based
Conditions: Mus musculus

IC50: 6.3 µM
Compound: C=C1C[C@]23C[C@H](OC(=O)/C=C/c4ccc(O)c(O)c4)[C@H]1[C@@]2(C)CCCC3(C)C
